Data on 6 compounds can be found in patent US4340539A, “Derivatives of 6-bromo penicillanic acid” (priority 1980, dated 1982).

Values after ≈ are worked out from the molar mass of the structure shown. Where a name gives a salt, the structure may show the parent alone. Read-outs that look alike come from different tables or passages of the source.

The subject of data set [1] is B. thetaiotaomicron. The experiment in a line: Anti-Bacteroides activity (MIC, agar dilution), alone and in combination with BL-P2013. It counts as cell-based. The method, then:
*Minimum inhibitory concentration (MIC) determined by the agar dilution
method using 50X dilutions of 24 hour cultures as inocula dispensed by th
Steer's inoculator. Assay medium composed of Brucella Agar plus 5% laked
sheep blood and 10 mcg/ml vitamin K.
On the technique in general: In agar dilution the substance is mixed into plates at graded concentrations.

In data set [2] the test system is B. fragilis. Described as above. It counts as cell-based.
Data set [3] deals with β-lactamase producing strains of E. coli. The experiment in a line: Therapeutic efficacy of amoxicillin in combinations with BL-P2024 in infected mice (Table 7). It counts as in vivo. The following applies: oral.
Data set [4] deals with S. aureus A-9606. Briefly: Therapeutic efficacy in mice experimentally infected with a beta-lactamase strain of Staphylococcus aureus (Table 3). The following applies: for ED50: Staphylococcus aureus, A9606, challenge 5 × 10^8, read-out: PD50/Treatment. It counts as in vivo. How it is done: Treatment schedule: Drugs administered 0 and 2 hours postinfection.
For data set [5], the system named is β-lactamase producing strains of S. aureus. Briefly: Therapeutic efficacy of amoxicillin in combinations with BL-P2024 in infected mice (Table 7). It counts as in vivo. The following applies: Staphylococcus aureus, po, read-out: PD50/Treatment.
The subject of data set [6] is β-lactamase producing strains of E. coli. Briefly: animal or person. It counts as in vivo, mice. As to conditions: Escherichia coli, in Mus musculus, po. The method, then: (§1) Drugs were administered orally at 0 and 2 hours postinfection.
(§2) Drugs were suspended in TCMC.

Data set [7] deals with β-lactamase producing strains of S. aureus. The experiment in a line: animal or person. The following applies: Staphylococcus aureus, in Mus musculus, po. It counts as in vivo, mice. How it is done:
as §1, §2

Data set [8] concerns Bacteroides species. Briefly: Anti-Bacteroides activity (MIC, agar dilution), alone and in combination with BL-P2013. It counts as cell-based.
For data set [9], the system named is S. aureus. Briefly: Antibacterial activity (MIC). It counts as cell-based. The following applies: Staphylococcus aureus.
For data set [10], the system named is S. pneumoniae. Briefly: Antibacterial activity (MIC). It counts as cell-based. The following applies: Streptococcus pneumoniae; strain A-9585.
Data set [11] deals with S. marcescens. Briefly: Antibacterial activity (MIC). It counts as cell-based. The following applies: Serratia marcescens; strain A20019.
Data set [12] relates to S. pyogenes. Briefly: Antibacterial activity (MIC). It counts as cell-based. As to conditions: Streptococcus pyogenes; strain A-9604.
In data set [13] the test system is E. cloacae. Briefly: Antibacterial activity (MIC). It counts as cell-based. As to conditions: Enterobacter cloacae, strain A-9659.
The subject of data set [14] is P. mirabilis. Briefly: Antibacterial activity (MIC). The following applies: Proteus mirabilis; strain A-9900. It counts as cell-based.
The test system of data set [15] is S. faecalis. Briefly: Antibacterial activity (MIC). It counts as cell-based. The following applies: Enterococcus faecalis; strain A20688.
In data set [16] the test system is P. rettgeri. The experiment in a line: Antibacterial activity (MIC). As to conditions: Providencia rettgeri; strain A21203. It counts as cell-based.
The subject of data set [17] is E. coli. Briefly: Antibacterial activity (MIC). It counts as cell-based. As to conditions: Escherichia coli, strain A15119.
Data set [18] can be described thus: in vivo. On the set-up: species or system mice. As to conditions: mouse, blood, po, 100 mg/kg, Test 3, oral 100 mg/kg, 30 min; read-out: Blood level. The text has this: Compounds prepared in 5% Propylene Glycol & TweenCMC-H2 O.
Values in parentheses are 95% confidence limits.
Assay Organism: E. coli A9675 (pH = 6.6, 0.1% inoculum)

For data set [19] the following is noted: man, cited from earlier work.
Data set [20] in a line: Hygroscopicity. It counts as physicochemical.
[21] abbreviates: Bacteroides thetaiotaomicron, strain A22277, β-lactamase +, read-out: MIC.
[22] abbreviates: strain A21875, β-lactamase +, read-out: MIC.
The mark [23] stands for this setting: strain A21916, β-lactamase +, read-out: MIC.
The mark [24] stands for this setting: strain A22021, β-lactamase +, read-out: MIC.
The mark [25] stands for this setting: strain A22053, β-lactamase +, read-out: MIC.
[26] abbreviates: strain A22697, β-lactamase +, read-out: MIC.
[27] abbreviates: strain A22793, β-lactamase +, read-out: MIC.
Setting [28] is: strain A22794, β-lactamase +, read-out: MIC.
[29] abbreviates: strain A22798, β-lactamase +, read-out: MIC.
Setting [30] is: Bacteroides, strain A20927-1, β-lactamase -, read-out: MIC.
Where [31] appears, read: Bacteroides, strain A20933, β-lactamase +, read-out: MIC.
Setting [32] is: Bacteroides, strain A20934, β-lactamase +, read-out: MIC.
Where [33] appears, read: Bacteroides, strain A20935, β-lactamase -, read-out: MIC.

By MIC is commonly meant the smallest concentration in the dilution series that meets the test's criterion for growth inhibition.

Take `CC1(C)S[C@@H]2[C@H](NC(=O)[C@H](N)c3ccc(O)cc3)C(=O)N2[C@H]1C(=O)O` [Amoxicillin]: the MIC was 16 µg/mL in data set [1] (setting [21]); 16 µg/mL in [1] (strain A22279, β-lactamase +); 8 µg/mL in data set [2] (setting [22]); 8 µg/mL in data set [2] (setting [23]); 4 µg/mL in [2] (setting [24]); 8 µg/mL in [2] (setting [25]). Further, the MIC in [2] (strain A22533, β-lactamase +) was over 125 µg/mL; in data set [2] (strain A22534, β-lactamase +), over 125 µg/mL; in data set [2] (strain A22535, β-lactamase +), over 125 µg/mL; in data set [2] (strain A22693, β-lactamase +), 16 µg/mL; in data set [2] (strain A22694, β-lactamase +), 16 µg/mL; in data set [2] (strain A22695, β-lactamase +) it was 125 µg/mL. In addition, the MIC is over 125 µg/mL in [2] (strain A22696, β-lactamase +); 8 µg/mL in data set [2] (setting [26]); 125 µg/mL in [2] (strain A22792, β-lactamase +); 8 µg/mL in data set [2] (setting [27]); 8 µg/mL in data set [2] (setting [28]); 16 µg/mL in [2] (strain A22795, β-lactamase +). Besides, the MIC in [2] (strain A22797, β-lactamase +) is 16 µg/mL; in data set [2] (setting [29]), 8 µg/mL; in [8] (Bacteroides) it was 16 µg/mL; in data set [8] (setting [30]), 0.13 µg/mL; in data set [8] (Bacteroides, strain A20930, β-lactamase +, read-out: MIC) it was 32 µg/mL; in data set [8] (setting [31]), 8 µg/mL. The MIC in [8] (setting [32]) amounted to 8 µg/mL; in data set [8] (setting [33]), 0.13 µg/mL; in [8] (strain A20929, β-lactamase +) it was 16 µg/mL; in data set [8] (strain A20931, β-lactamase +), 16 µg/mL; in data set [8] (strain A21954, β-lactamase +), 16 µg/mL. For the same compound, the PD50/Treatment in [3] (E. coli A9675, challenge 6 × 10^5, vehicle TCMC) was over 400 mg/kg; in data set [3] (E. coli A9675, challenge 7 × 10^5, vehicle 50% DMSO) it was over 100 mg/kg; in data set [3] (E. coli A9675, challenge 7 × 10^5, vehicle TCMC), over 100 mg/kg; in [3] (E. coli A9675, challenge 9 × 10^5, vehicle 50% DMSO), over 100 mg/kg; in data set [4] (IM, challenge 7 × 10^8), over 800 mg/kg. Besides, the ED50 in data set [4] (IM) is over 800 mg/kg; in data set [4] (PO), over 800 mg/kg; in [5] it was over 800 mg/kg; in [6] (read-out: PD50/Treatment, oral, E. coli A9675, challenge 6 × 10^5) it was over 400 mg/kg; in [6] (read-out: PD50/Treatment, oral, E. coli A9675, challenge 7 × 10^5), over 100 mg/kg; in data set [6] (read-out: PD50/Treatment, oral, E. coli A9675, challenge 8 × 10^5) it was over 200 mg/kg. Moreover, the ED50 in data set [6] (read-out: PD50/Treatment, oral, E. coli A20649, challenge 5 × 10^5) is over 200 mg/kg; in data set [6] (read-out: PD50/Treatment, oral, E. coli A20649, challenge 6 × 10^5), over 200 mg/kg; in data set [6] (read-out: PD50/Treatment, oral, E. coli A21223, challenge 6 × 10^5), over 200 mg/kg; in data set [6] (read-out: PD50/Treatment, oral, E. coli A21223, challenge 7 × 10^5 (first line)), over 200 mg/kg; in [6] (read-out: PD50/Treatment, oral, E. coli A21223, challenge 7 × 10^5 (third line)), over 200 mg/kg; in data set [7] (read-out: PD50/Treatment, oral, S. aureus A9606, challenge 2 × 10^9), over 800 mg/kg. For the same compound, the ED50 in data set [7] (read-out: PD50/Treatment, oral, S. aureus A9606, challenge 7 × 10^8) was over 200 mg/kg; in data set [7] (read-out: PD50/Treatment, oral, S. aureus A15091, challenge 4 × 10^8) it was over 200 mg/kg; in data set [7] (read-out: PD50/Treatment, oral, S. aureus A15091, challenge 5 × 10^8) it was over 800 mg/kg; in [7] (read-out: PD50/Treatment, oral, S. aureus A20379, challenge 5 × 10^8), over 200 mg/kg; in [7] (read-out: PD50/Treatment, oral, S. aureus A20379, challenge 6 × 10^8), over 200 mg/kg.

On to `CC1(C)S[C@@H]2[C@H](NC(=O)[C@H](N)c3ccccc3)C(=O)N2[C@H]1C(=O)O` [Ampicillin, reference compound], for which the MIC amounted to 0.16 µg/mL (≈ 0.458 µM) in data set [9] (strain A-9537); 0.06 µg/mL in data set [9] (strain A-9537, + 50% serum); 4 ng/mL (≈ 0.0114 µM) in [10]; 16 µg/mL (≈ 45.8 µM) in [11]; 4 ng/mL (≈ 0.0114 µM) in [12]; 63 µg/mL (≈ 180 µM) in data set [13]. Moreover, the MIC in data set [14] worked out at 0.13 µg/mL (≈ 0.372 µM); in data set [15], 0.13 µg/mL (≈ 0.372 µM); in data set [16], 4 µg/mL (≈ 11.4 µM); in [17] it was 1 µg/mL (≈ 2.86 µM).

For the compound `CC1(CCl)C(C(=O)OC2OC(=O)c3ccccc32)N2C(=O)CC2S1(=O)=O` (centres unmarked) [BL-P2036], the concentration at 0.5 h in data set [18] was found to be 6700 ng/mL.

Take `NCc1ccccc1CC(=O)N[C@@H]1C(=O)N2C(C(=O)O)=C(CSc3nnnn3CC(=O)O)CS[C@H]12` [Ceforanide]: the MIC amounted to 125 µg/mL in [1] (setting [21]); 125 µg/mL in data set [1] (strain A22279, β-lactamase +); 32 µg/mL in data set [2] (setting [22]); 63 µg/mL in [2] (setting [23]); 32 µg/mL in data set [2] (setting [24]); 32 µg/mL in [2] (setting [25]). The MIC in data set [2] (strain A22533, β-lactamase +) was over 125 µg/mL; in [2] (strain A22534, β-lactamase +) it was over 125 µg/mL; in data set [2] (strain A22535, β-lactamase +), over 125 µg/mL; in data set [2] (strain A22693, β-lactamase +, read-out: MIC), 63 µg/mL; in data set [2] (strain A22694, β-lactamase +) it was 125 µg/mL; in data set [2] (strain A22695, β-lactamase +) it was over 125 µg/mL. For the same compound, the MIC in data set [2] (strain A22696, β-lactamase +) is over 125 µg/mL; in data set [2] (setting [26]) it was 63 µg/mL; in data set [2] (strain A22792, β-lactamase +) it was over 125 µg/mL; in data set [2] (setting [27]), 32 µg/mL; in [2] (setting [28]) it was 32 µg/mL; in [2] (strain A22795, β-lactamase +, read-out: MIC), 63 µg/mL. Besides, the MIC is 63 µg/mL in data set [2] (strain A22797, β-lactamase +, read-out: MIC); 32 µg/mL in data set [2] (setting [29]); 125 µg/mL in [8] (Bacteroides); 0.5 µg/mL in [8] (setting [30]); 63 µg/mL in data set [8] (Bacteroides, strain A20929, β-lactamase +, read-out: MIC); 63 µg/mL in [8] (Bacteroides, strain A20931, β-lactamase +, read-out: MIC). Moreover, the MIC worked out at 63 µg/mL in data set [8] (setting [31]); 32 µg/mL in [8] (setting [32]); 2 µg/mL in [8] (setting [33]); 63 µg/mL in data set [8] (Bacteroides, strain A21954, β-lactamase +, read-out: MIC); 63 µg/mL in [8] (Bacteroides, strain A21959, β-lactamase +, read-out: MIC).

`CC1(C)S[C@@H]2[C@H](NC(=O)[C@H](N)c3ccccc3)C(=O)N2[C@H]1C(=O)OCOC(=O)[C@@H]1N2C(=O)C[C@H]2S(=O)(=O)C1(C)C` [Example 3]: in data set [19] (gastro-intestinal tract), the absorption result was “excellently absorbed”. In data set [19], the “blood and tissue levels of antibiotic and β-lactamase inhibitor” value was “high blood and tissue levels”; the hydrolysis after absorption result is “hydrolyzed with simultaneous liberation of the active components”.

Consider `CC1(CCl)C(C(=O)O)N2C(=O)CC2S1(=O)=O` (centres unmarked) [Sodium Salt of BL-P2013], for which the hygroscopicity result in data set [20] is recorded as “Non-hygroscopic”.
